Measurements taken from PubChem BioAssay (NCI).
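In this assay, cells in 96-well plates receive the compound at five concentrations for 48 hours. Endpoints are linearly interpolated between the surrounding concentrations. GI50 is the concentration that inhibits growth by half. TGI: total growth inhibition.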

Assays:
Assay in all cases: inhibition of tumour cell growth, NCI panel, 48 h
SN12C renal = system: SN12C renal
SF-539 CNS = system: SF-539 CNS
HOP-92 NSCLC = system: HOP-92 NSCLC
CAKI-1 renal = system: CAKI-1 renal
HCC-2998 colon = system: HCC-2998 colon
SK-MEL-28 melanoma = system: SK-MEL-28 melanoma
M14 melanoma = system: M14 melanoma
HCT-15 colon = system: HCT-15 colon
OVCAR-5 ovarian = system: OVCAR-5 ovarian
HL-60(TB) leukemia = system: HL-60(TB) leukemia

SMILES: COC1=CC(=O)c2nc(-c3cccc(C)n3)[nH]c2C1=O
- GI50 (SN12C renal): 32.9 µM
- TGI (SN12C renal): > 100 µM
- GI50 (SF-539 CNS): 18.8 µM
- TGI (SF-539 CNS): 36.7 µM
- GI50 (HOP-92 NSCLC): 17.4 µM
- TGI (HOP-92 NSCLC): 43.7 µM
- GI50 (CAKI-1 renal): 22 µM
- TGI (CAKI-1 renal): 54.9 µM
- GI50 (HCC-2998 colon): 35.6 µM
- TGI (HCC-2998 colon): > 100 µM
- GI50 (SK-MEL-28 melanoma): 31.7 µM
- TGI (SK-MEL-28 melanoma): > 100 µM
- GI50 (M14 melanoma): 35.6 µM
- TGI (M14 melanoma): > 100 µM
- GI50 (HCT-15 colon): 52.5 µM
- TGI (HCT-15 colon): > 100 µM
- GI50 (OVCAR-5 ovarian): 30.9 µM
- TGI (OVCAR-5 ovarian): > 100 µM
- GI50 (HL-60(TB) leukemia): 76.4 µM
- TGI (HL-60(TB) leukemia): > 100 µM

SMILES: O=C1OC(c2ccccc2)=N/C1=C\c1cccc2ccccc12
- TGI (SN12C renal): > 100 µM
- TGI (SF-539 CNS): > 100 µM
- TGI (HOP-92 NSCLC): > 100 µM
- TGI (CAKI-1 renal): > 100 µM
- TGI (HCC-2998 colon): > 100 µM
- TGI (SK-MEL-28 melanoma): > 100 µM
- TGI (M14 melanoma): > 100 µM
- TGI (HCT-15 colon): > 100 µM
- TGI (OVCAR-5 ovarian): > 100 µM
- TGI (HL-60(TB) leukemia): > 100 µM

SMILES: COC(C(O)CO)C(O)C(O)C(=O)NNc1ccccc1 (stereo not given)
- TGI (SN12C renal): > 100 µM
- TGI (SF-539 CNS): 98.3 µM
- TGI (HOP-92 NSCLC): > 100 µM
- TGI (CAKI-1 renal): > 100 µM
- TGI (HCC-2998 colon): > 100 µM
- TGI (SK-MEL-28 melanoma): > 100 µM
- TGI (M14 melanoma): > 100 µM
- TGI (HCT-15 colon): > 100 µM
- TGI (OVCAR-5 ovarian): > 100 µM
- TGI (HL-60(TB) leukemia): > 100 µM

SMILES: C=C1C(=O)O[C@@H]2/C=C(\C)CC/C=C(/COC(C)=O)C[C@@H](OC(C)=O)[C@@H]12
- TGI (SN12C renal): 24.9 µM
- TGI (SF-539 CNS): 36.3 µM
- TGI (HOP-92 NSCLC): 21.1 µM
- TGI (CAKI-1 renal): 20.2 µM
- TGI (HCC-2998 colon): 30.2 µM
- TGI (SK-MEL-28 melanoma): 23.5 µM
- TGI (M14 melanoma): 27.1 µM
- TGI (HCT-15 colon): 12.4 µM
- TGI (OVCAR-5 ovarian): 34.6 µM
- TGI (HL-60(TB) leukemia): 8.52 µM

SMILES: CCCCC(O)(c1ccc(Cl)cc1)C(CN1CCOCC1)c1ccc(Cl)cc1 (stereo not given)
- GI50 (SN12C renal): 12.6 µM
- TGI (SN12C renal): 28.5 µM
- GI50 (SF-539 CNS): 17 µM
- TGI (SF-539 CNS): 36.6 µM
- GI50 (HOP-92 NSCLC): 10.6 µM
- TGI (HOP-92 NSCLC): 23.6 µM
- GI50 (CAKI-1 renal): 14.6 µM
- TGI (CAKI-1 renal): 32.6 µM
- GI50 (HCC-2998 colon): 12.3 µM
- TGI (HCC-2998 colon): 26.8 µM
- GI50 (SK-MEL-28 melanoma): 15.9 µM
- TGI (SK-MEL-28 melanoma): 33.9 µM
- GI50 (M14 melanoma): 13.8 µM
- TGI (M14 melanoma): 33.4 µM
- GI50 (HCT-15 colon): 11.2 µM
- TGI (HCT-15 colon): 26.2 µM
- GI50 (OVCAR-5 ovarian): 10.7 µM
- TGI (OVCAR-5 ovarian): 23.7 µM
- GI50 (HL-60(TB) leukemia): 16.7 µM
- TGI (HL-60(TB) leukemia): 39.5 µM

SMILES: CN1C(=O)c2cccc3cc([N+](=O)[O-])cc(c23)C1=O
- TGI (SN12C renal): > 10 µM
- TGI (SF-539 CNS): > 10 µM
- TGI (HOP-92 NSCLC): > 10 µM
- TGI (CAKI-1 renal): > 10 µM
- TGI (HCC-2998 colon): > 10 µM
- TGI (SK-MEL-28 melanoma): > 10 µM
- TGI (M14 melanoma): > 10 µM
- TGI (HCT-15 colon): > 10 µM
- TGI (OVCAR-5 ovarian): > 10 µM
- TGI (HL-60(TB) leukemia): > 10 µM

SMILES: CC(C)(C)c1ccc2c(c1)S(=O)(=O)Nc1ccccc1NS(=O)(=O)c1cc(C(C)(C)C)ccc1OCCOCCOCCO2
- TGI (SN12C renal): > 100 µM
- TGI (SF-539 CNS): > 100 µM
- TGI (HOP-92 NSCLC): > 100 µM
- TGI (CAKI-1 renal): > 100 µM
- TGI (HCC-2998 colon): > 100 µM
- TGI (SK-MEL-28 melanoma): > 100 µM
- TGI (M14 melanoma): > 100 µM
- TGI (HCT-15 colon): > 100 µM
- TGI (OVCAR-5 ovarian): > 100 µM
- TGI (HL-60(TB) leukemia): > 100 µM

SMILES: COC(=O)[C@H](C)NC(=O)NC(=O)NC(=O)CI
- GI50 (SN12C renal): 19.8 µM
- TGI (SN12C renal): 39.3 µM
- GI50 (SF-539 CNS): 15.9 µM
- TGI (SF-539 CNS): 30.3 µM
- GI50 (HOP-92 NSCLC): 6.79 µM
- TGI (HOP-92 NSCLC): 19.7 µM
- GI50 (CAKI-1 renal): 2.53 µM
- TGI (CAKI-1 renal): 6.73 µM
- GI50 (HCC-2998 colon): 17.3 µM
- TGI (HCC-2998 colon): 33.6 µM
- GI50 (SK-MEL-28 melanoma): 14.4 µM
- TGI (SK-MEL-28 melanoma): 29.9 µM
- GI50 (M14 melanoma): 11.8 µM
- TGI (M14 melanoma): 27.5 µM
- GI50 (HCT-15 colon): 5.26 µM
- TGI (HCT-15 colon): 18 µM
- GI50 (OVCAR-5 ovarian): 16.7 µM
- TGI (OVCAR-5 ovarian): 36 µM
- GI50 (HL-60(TB) leukemia): 2.15 µM
- TGI (HL-60(TB) leukemia): 4.51 µM
